How the values were obtained:
[1] = target: Serine/threonine-protein kinase mTOR (Homo sapiens, UniProt P42345); experiment: Inhibition of mTOR (unknown origin)
[2] = test system: MDA-MB-231; experiment: Induction of autophagy in human MDA-MB-231 cells assessed as MDC positive ratio at 1 uM incubated for 6 hrs by MDC staining based flow cytometry analysis; type: functional
[3] = test system: A549; experiment: cells; details: Homo sapiens, A549, 24 h
Description: Antiproliferative activity against human A549 cells assessed as reduction in cell viability incubated for 24 hrs by MTT assay

[4] = test system: MDA-MB-231; experiment: cells; details: Homo sapiens, MDA-MB-231, 24 h
Description: Antiproliferative activity against human MDA-MB-231 cells assessed as reduction in cell viability incubated for 24 hrs by MTT assay

[5] = test system: MDA-MB-468; experiment: cells; details: Homo sapiens, MDA-MB-468, 24 h
Description: Antiproliferative activity against human MDA-MB-468 cells assessed as reduction in cell viability incubated for 24 hrs by MTT assay

| Compound | IC50 [1] | Activity [2] | IC50 [3] | IC50 [4] | IC50 [5] |
| --- | --- | --- | --- | --- | --- |
| C/C(=N\NC(=O)c1cccc(Br)c1)c1ccc(N)cc1 | 6.21 µM | 15.81% | 13 µM | 10.9 µM | 13.1 µM |
| C/C(=N\NC(=O)c1ccc(C)c(Br)c1)c1ccc(O)cc1 | 2.01 µM | 19.27% | 10.1 µM | 6.71 µM | 8.46 µM |
| O=C(Nc1ccc(C(F)(F)F)cc1)Nc1nc2ccccc2[nH]1 | 23.7 µM | 8.2% | 23.5 µM | 22.8 µM | 23.7 µM |
| Cc1ccc(C(=O)Nc2cc3ccccc3cn2)cc1Br | 15.3 µM | 11.8% | 26.4 µM | 32.1 µM | 25.9 µM |
| O=C(NCc1cc(C(F)(F)F)cc(C(F)(F)F)c1)Nc1cccc(F)c1 | 17.6 µM | 8.77% | 12.5 µM | 13.8 µM | 17.5 µM |
| C/C(=N\NC(=O)c1cccc(F)c1)c1ccc(C(=O)Nc2nc3ccccc3[nH]2)cc1 | 0.83 µM | 22.34% | 7.81 µM | 5.03 µM | 6.06 µM |
| CO[C@H]1C[C@@H]2CC[C@@H](C)[C@@](O)(O2)C(=O)C(=O)N2CCCC[C@H]2C(=O)O[C@H]([C@H](C)C[C@@H]2CC[C@@H](O)[C@H](OC)C2)CC(=O)[C@H](C)/C=C(\C)[C@@H](O)[C@@H](OC)C(=O)[C@H](C)C[C@H](C)/C=C/C=C/C=C/1C [SIROLIMUS] | – | 31.03% | 30.7 µM | 35.8 µM | 37.2 µM |
| CC(NC(=O)Nc1cccc(Cl)c1)c1ccccc1 (centres undefined) | > 30 µM | 9.25% | 24.8 µM | 22.6 µM | 23.7 µM |
| C/C(=N\NC(=O)c1ccc(C)c(Br)c1)c1ccc(N)cc1 | 7.3 µM | 18.9% | 13.6 µM | 9.91 µM | 12.1 µM |
| C/C(=N\NC(=O)c1cccc(Br)c1)c1ccc(C(=O)Nc2cc(N3CCOCC3)ccn2)cc1 | 2.45 µM | 20.99% | 13.7 µM | 9.21 µM | 10.2 µM |
| O=C(NCc1ccc(O)cc1)Nc1cccc(Cl)c1 | 27.1 µM | 9.22% | 31.2 µM | 19.5 µM | 25.9 µM |
| C/C(=N\NC(=O)c1cccc(I)c1)c1ccncc1 | 1.17 µM | 15.79% | 9.84 µM | 12.5 µM | 12.1 µM |
| C/C(=N\NC(=O)c1ccc(C)c(Br)c1)c1ccncc1 | 5.24 µM | 15.26% | 12.4 µM | 11 µM | 8.69 µM |
| O=C(NCc1ccc(O)cc1)Nc1cccc(F)c1 | > 30 µM | 8.31% | 22.3 µM | 27.7 µM | 34.1 µM |
| O=C(Nc1nc2ccccc2[nH]1)c1ccc(OC(F)(F)F)cc1 | 3.99 µM | 11.22% | 27.5 µM | 29 µM | 24.1 µM |
| C/C(=N\NC(=O)c1cccc(F)c1)c1ccc(O)cc1O | 4.22 µM | 15.04% | 15.4 µM | 10.8 µM | 9.24 µM |
| C/C(=N\NC(=O)c1ccc(C)c(F)c1)c1ccc(N)cc1 | 4.32 µM | 15.44% | 12 µM | 8.4 µM | 9.55 µM |
| C/C(=N\NC(=O)c1ccc(C)c(Br)c1)c1ccc(C(F)(F)F)cc1 | 4.76 µM | 18.65% | 9.07 µM | 9.3 µM | 9.91 µM |
| C/C(=N\NC(=O)c1cccc(Br)c1)c1ccc(C(=O)O)cc1 | 0.69 µM | 19.83% | 7.78 µM | 7.5 µM | 5.51 µM |
| Cc1ccc(C(=O)NCc2ccc(O)cc2)cc1Br | > 30 µM | 12.73% | 33.8 µM | 33.4 µM | 41.9 µM |

| Compound | IC50 [1] | Activity [2] | IC50 [3] | IC50 [4] | IC50 [5] |
| --- | --- | --- | --- | --- | --- |
| O=C(NCc1cc(C(F)(F)F)cc(C(F)(F)F)c1)Nc1ccc(C(F)(F)F)cc1 | 20.4 µM | 9.62% | 13.3 µM | 16.9 µM | 17.9 µM |
| C/C(=N\NC(=O)c1ccc(C)c(I)c1)c1ccncc1 | 1.66 µM | 16.25% | 11.3 µM | 9.08 µM | 10.3 µM |
| O=C(NCc1ccc(O)cc1)Nc1ccc(C(F)(F)F)cc1 | 10.3 µM | 8.29% | 36.7 µM | 22.9 µM | 17.5 µM |
| CN(Cc1ccccc1)C(=O)Nc1ccc(C(F)(F)F)cc1 | 10.1 µM | 7.34% | 28.8 µM | 21.2 µM | 21.9 µM |
| C/C(=N\NC(=O)c1cccc(Br)c1)c1ccc(C(=O)NN2CCOCC2)cc1 | 4.84 µM | 17.2% | 11.2 µM | 8.11 µM | 8.17 µM |
| C/C(=N\NC(=O)c1cccc(I)c1)c1ccc(C(=O)O)cc1 | 0.82 µM | 17.2% | 8.91 µM | 8.96 µM | 6.37 µM |
| CC(NC(=O)Nc1cccc(F)c1)c1ccccc1 (centres undefined) | 16.9 µM | 8.29% | 33 µM | 34.1 µM | 31.9 µM |
| C/C(=N\NC(=O)c1cccc(Br)c1)c1cc(O)cc(O)c1 | 8.2 µM | 16.33% | 10.3 µM | 9.13 µM | 11 µM |
| O=C(Nc1ccc(C(F)(F)F)cc1)Nc1cccc(F)c1 | 12.6 µM | 7.22% | 11.5 µM | 10.3 µM | 11.9 µM |
| C/C(=N\NC(=O)c1ccc(C)c(I)c1)c1ccc(C(F)(F)F)cc1 | 1.98 µM | 14.89% | 9.46 µM | 8.3 µM | 8.76 µM |
| Cc1ccc(C(=O)Nc2ccc3ccccc3n2)cc1Br | 17.9 µM | 13.81% | 31.6 µM | 38 µM | 27.5 µM |
| CO[C@H]1C[C@@H]2CC[C@@H](C)[C@@](O)(O2)C(=O)C(=O)N2CCCC[C@H]2C(=O)O[C@H]([C@H](C)C[C@@H]2CC[C@@H](OC(=O)C(C)(CO)CO)[C@H](OC)C2)CC(=O)[C@H](C)/C=C(\C)[C@@H](O)[C@@H](OC)C(=O)[C@H](C)C[C@H](C)/C=C/C=C/C=C/1C [TEMSIROLIMUS] | 2.29 µM | 15.33% | 11.8 µM | 17.6 µM | 10.9 µM |
| Cc1ccc(C(=O)NCCc2ccc(O)cc2)cc1Br | > 30 µM | 11.23% | 34 µM | 41.7 µM | 33.7 µM |
| C/C(=N\NC(=O)c1ccc(C)c(F)c1)c1ccc(C(=O)Nc2cc(N3CCOCC3)ccn2)cc1 | 3.83 µM | 19.22% | 13.9 µM | 13.2 µM | 12.1 µM |
| O=C(Nc1cccc(F)c1)Nc1nc2ccccc2[nH]1 | 4.93 µM | 8.32% | 19.8 µM | 19 µM | 24.1 µM |
| C/C(=N\NC(=O)c1cccc(Br)c1)c1ccc(C(=O)Nc2cc[nH]n2)cc1 | 1.29 µM | 19.78% | 10.5 µM | 9.24 µM | 8.32 µM |
| O=C(NCc1cccc(Br)c1)Nc1ccc(C(F)(F)F)cc1 | 15.8 µM | 9.1% | 26.4 µM | 20.8 µM | 24.3 µM |
| C/C(=N\NC(=O)c1ccc(C)c(I)c1)c1ccc(N)cc1 | 5.08 µM | 14.28% | 9.93 µM | 8.46 µM | 9.54 µM |
| C/C(=N\NC(=O)c1cccc(I)c1)c1ccc(N)cc1 | 4.79 µM | 15.27% | 13 µM | 13.1 µM | 8.3 µM |

From ChEMBL document CHEMBL4819087, “Identification and optimization of 3-bromo-N'-(4-hydroxybenzylidene)-4-methylbenzohydrazide derivatives as mTOR inhibitors that induce autophagic cell death and apoptosis in triple-negative breast cancer” (Eur J Med Chem, 2021)
